In general, IC50 refers to the midpoint of a concentration-inhibition curve. A word on the melting point: it is the temperature of the solid-liquid transition.

Our source for the IC50 and melting point values is patent US8217045B2, “Organic compounds” (Novartis AG, priority 2007, dated 2012).

The target of one data set is T1, c-Abl (His-cAbl) (Homo sapiens, UniProt P00519).
T1 construct: The His-tagged kinase domain of Abl is cloned and expressed; His tag; made in house; host or cells: baculovirus/Sf9
T1 sequence (P00519 242-493 limits assumed): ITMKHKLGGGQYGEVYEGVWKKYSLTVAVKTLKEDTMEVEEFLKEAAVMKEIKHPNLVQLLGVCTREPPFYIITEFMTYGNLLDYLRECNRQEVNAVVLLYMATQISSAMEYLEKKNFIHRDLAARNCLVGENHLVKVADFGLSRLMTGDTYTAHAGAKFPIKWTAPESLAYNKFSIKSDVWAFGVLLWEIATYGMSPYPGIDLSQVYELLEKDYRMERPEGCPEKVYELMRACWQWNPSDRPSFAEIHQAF
As to the kind of experiment: in vitro enzyme assay, wild-type Abl catalysed phosphorylation. The settings on record: 16 nM His-cAbl, 10 μM ATP, 1 hour at 30° C.; read-out: IC50, inhibition of wild-type Abl catalysed phosphorylation. Format: biochemical. How it is done: (§1) Test for activity against wild-type and mutant Abl protein tyrosine kinase:
(§2) The test, an in vitro enzyme assay, is conducted as a filter binding assay as follows: The His-tagged kinase domain of Abl is cloned and expressed in the baculovirus/Sf9 system as described by Bhat et al., J. Biol. Chem. 1997; 272:16170-16175. A protein of 37 kD (Abl kinase) is purified by a two-step procedure over a Cobalt metal chelate column followed by an anion exchange column with a yield of 1-2 mg/L of Sf9 cells. The purity of the Abl kinase is >90% as judged by SDS-PAGE after Coomassie blue staining.
(§3) Based on the optimized assay conditions for the individual kinases a specific assay set-up was chosen. The assays were prepared and incubated on a liquid handling robot system using 384-well plates. To the assay plates containing 50 nL compound or control solutions, 4.5 μL of solution A consisting of the peptide substrate and ATP in assay buffer were added. The reactions were initiated by adding 4.5 μL of solution B consisting of the respective kinase in assay buffer. The reactions were incubated for 1 hour at 30° C. in a final reaction volume of 9.05 μL. Based on a generic assay buffer (50 mM HEPES pH7.5, 1 mM DTT, 0.02% Tween20, 0.02% BSA), following components were added depending on the chosen kinase: • c-Abl: 16 nM His-cAbl, 5 μM peptide substrate (FITC-Ahx-EAIYAAPFAKKK-CONH2), 10 mM MgCl2, 10 μM ATP • c-Abl-T315I: 2.4 nM His-cAbl-T315I, 5 μM peptide substrate (FITC-Ahx-EAIYAAPFAKKK-CONH2), 10 mM MgCl2, 10 μM ATP
(§4) After incubation, the kinase reactions were stopped by the addition of 16 μL of stop solution (100 mM HEPES, 5% DMSO, 0.1% Coating reagent, 10 mM EDTA, 0.015% Brij 35). Subsequently, the assay plates were transferred to a Caliper LabChip3000 reader and the unphosphorylated substrate and the phosphorylated product were separated and quantitated in a microfluidic chip.

A further data set addresses Bcr-Abl (Homo sapiens, UniProt P00519). Briefly: Bcr-Abl phosphorylation capture ELISA in 32D-Bcr-Abl cells. The data set is classed as cell-based, murine. The settings on record: 90 min at 37° C., read-out: IC50, reduction of Bcr-Abl phosphorylation. The source says: 32D cl3 cells are obtained from the American Type Culture Collection (ATCC CRL11346) and Ba/F3 cells are obtained from the German Collection of Microorganisms and Cell Cultures (DSMZ, Braunschweig and DSMZ No. ACC 300) Palacios et al., Nature, 1984; 309:126 and Palacios et al., Cell, 1985:41:72.
Oncogene 1996; 12: 839-46; and Okuda K, Golub T R, Gilliland D G, Griffin J D. p210BCR-ABL, p190BCR-ABL, and TEL/ABL activate similar signal transduction pathways in hematopoietic cell lines. Oncogene 1996; 13:1147-52.)
The cells express the fusion Bcr-Abl protein with a constitutively active Abl kinase and proliferate growth factor independent. The cells are expanded in RPMI 1640 (AMIMED), 10% fetal calf serum (FCS), 2 mM glutamine (Gibco) (“complete medium”), and a working stock is prepared by freezing aliquots of 2×10^6 cells per vial in freezing medium (95% FCS, 5% DMSO (SIGMA)). After thawing, the cells are used during maximally 10-12 passages for the experiments. The antibody anti-Abl SH3 domain cat. #06-466 from Upstate Biotechnology is used for the ELISA. For detection of Bcr-Abl phosphorylation, the anti-phosphotyrosine antibody Ab PY20, labelled with alkaline phosphatase ([…]) from ZYMED (cat. #03-7722) is used. […]
On the technique in general: In an ELISA, binding on a coated surface is turned into a signal by an enzyme label.

Data set [1] concerns the target T2, c-Abl-T315I (His-cAbl-T315I) (Homo sapiens, UniProt P00519, T315I).
T2 construct: The His-tagged kinase domain of Abl is cloned and expressed; His tag; made in house; host or cells: baculovirus/Sf9
T2 sequence (P00519 242-493 T315I limits assumed): T1 sequence (P00519 242-493 limits assumed) with T74I
As to the kind of experiment: in vitro enzyme assay, T315I mutant Abl catalysed phosphorylation. The data set is classed as biochemical. The conditions noted are these: 2.4 nM His-cAbl-T315I, 10 μM ATP, 1 hour at 30° C.; read-out: IC50, inhibition of T315I mutant Abl catalysed phosphorylation. As for the experimental part: as §1, §2, §3, §4

Substitutions are numbered along the chain they refer to. Some results are limits rather than exact numbers.

With `CC(=O)Nc1cc(Oc2ccc3c(C(=O)Nc4cc(-n5cnc(C)c5)cc(C(F)(F)F)c4)cccc3c2)ccn1` [Example 1, 6-[[2-(Acetylamino)-pyridin-4-yl]oxy]-naphthalene-1-carboxylic acid [3-(4-methyl-1H-imidazol-1-yl)-5-(trifluoromethylphenyl)]amide], the 50% inhibitory concentration (IC50) at c-Abl (His-cAbl) was less than 0.005 µM.
In turn, `Cc1cn(-c2cc(NC(=O)c3cccc4cc(Oc5ccnc(NC(=O)C6CC6)c5)ccc34)cc(C(F)(F)F)c2)cn1` [Example 2, 6-[[2-(Cyclopropylcarbonyl)amino-pyridin-4-yl]oxy]-naphthalene-1-carboxylic acid [3-(4-methyl-1H-imidazol-1-yl)-5-(trifluoromethylphenyl)]amide] gave a melting point of 242 to 244 °C. The IC50 at Bcr-Abl was 0.021 to 0.179 µM.
The compound `Cc1cn(-c2cc(NC(=O)c3cccc4cc(Oc5ccnc(NC(=O)C(C)(C)C)c5)ccc34)cc(C(F)(F)F)c2)cn1` [Example 3] had a melting point greater than 120 °C.
On the same count and under the same terms, to `Cc1cn(-c2cc(NC(=O)c3cccc4cc(Oc5ccnc(NC(=O)C(C)(C)O)c5)ccc34)cc(C(F)(F)F)c2)cn1` [Example 4, 6-[[2-(2-Hydroxy-2-methylpropylcarbonyl)amino-pyridin-4-yl]oxy]-naphthalene-1-carboxylic acid [3-(4-methyl-1H-imidazol-1-yl)-5-(trifluoromethylphenyl)]amide] belongs 248 to 251 °C.
On to `Cc1cn(-c2cc(NC(=O)c3cccc4cc(Oc5ccnc(NC(=O)N(C)C)c5)ccc34)cc(C(F)(F)F)c2)cn1` [Example 5], for which the melting point is greater than 138 °C. For the same compound, the IC50 on c-Abl (His-cAbl) was less than 0.005 µM.
For `Cc1cn(-c2cc(NC(=O)c3cccc4cc(Oc5ccnc(Nc6ccccn6)c5)ccc34)cc(C(F)(F)F)c2)cn1` [Example 6, 6-[[2-[(2-Pyridinyl)amino]-4-pyridinyl]oxy]-naphthalene-1-carboxylic acid [3-(4-methyl-1H-imidazol-1-yl)-5-(trifluoromethylphenyl)]amide], the melting point fell in the range of 204 to 206 °C. In addition, the half-maximal inhibitory concentration (IC50) in data set [1] fell in the range of 0.047 to 0.049 µM.
With `CC(=O)Nc1cc(Oc2ccc3c(C(=O)Nc4ccc(CN5CCN(C)CC5)c(C(F)(F)F)c4)cccc3c2)ccn1` [Example 7, 6-[[2-(Acetylamino)-pyridin-4-yl]oxy]-naphthalene-1-carboxylic acid [4-[(4-methyl-1-piperazinyl)methyl]-3-trifluoromethyl-phenyl]amide], the melting point was in the range of 112 to 114 °C. The IC50 at c-Abl (His-cAbl) is less than 0.005 µM.
Consider `CN1CCN(Cc2ccc(NC(=O)c3cccc4cc(Oc5ccnc(NC(=O)C6CC6)c5)ccc34)cc2C(F)(F)F)CC1` [Example 8, 6-[[2-(Cyclopropylcarbonyl)amino-pyridin-4-yl]oxy]-naphthalene-1-carboxylic acid [4-[(4-methyl-1-piperazinyl)methyl]-3-trifluoromethyl-phenyl]amide], for which the IC50 at c-Abl (His-cAbl) is less than 0.005 µM.
As for `CN1C2CCCC1CN(Cc1ccc(NC(=O)c3cccc4cc(Oc5ccnc(NC(=O)C6CC6)c5)ccc34)cc1C(F)(F)F)C2` [Example 11], the IC50 at c-Abl (His-cAbl) was less than 0.005 µM.
With `Cc1ncc(-c2cc(NC(=O)c3cccc4cc(Oc5ccnc(NC(=O)C6CC6)c5)ccc34)cc(C(F)(F)F)c2)[nH]1` [Example 15], in data set [1], the IC50 lay within 0.036 to 0.057 µM.
On to `CC(=O)Nc1cc(Oc2ccc3c(C(=O)Nc4cc(-n5cnc(C)c5)cc(C(F)(F)F)c4)cccc3c2)ncn1` [Example 19, 6-[[6-(Acetylamino)-pyrimidin-4-yl]oxy]-naphthalene-1-carboxylic acid [3-(4-methyl-imidazol-1-yl)-5-trifluoromethyl-phenyl]-amide], for which the IC50 at c-Abl (His-cAbl) is less than 0.005 µM.
`Cc1cn(-c2cc(NC(=O)c3cccc4cc(Oc5cc(NC(=O)C6CC6)ncn5)ccc34)cc(C(F)(F)F)c2)cn1` [Example 20, 6-[[6-(Cyclopropanecarbonyl)amino-pyrimidin-4-yl]oxy]-naphthalene-1-carboxylic acid [3-(4-methyl-imidazol-1-yl)-5-trifluoromethyl-phenyl]-amide] displayed a melting point of 216 to 220 °C.
Still for that read-out and setting: to `Cc1cn(-c2cc(NC(=O)c3cccc4cc(Oc5cc(N)ncn5)ccc34)cc(C(F)(F)F)c2)cn1` [Example 21, 6-[[6-Amino-pyrimidin-4-yl]oxy]-naphthalene-1-carboxylic acid [3-(4-methyl-imidazol-1-yl)-5-trifluoromethyl-phenyl]-amide] belongs greater than 148 °C; to `Cc1cn(-c2cc(NC(=O)c3cccc4cc(Oc5ccnc(Nc6nccs6)c5)ccc34)cc(C(F)(F)F)c2)cn1` [Example 22, 6-[[N-[2-(4-methyl-2-thiazolyl)amino]-pyridin-4-yl]oxy]-naphthalene-1-carboxylic acid [3-(4-methyl-1H-imidazol-1-yl)-5-(trifluoromethylphenyl)]amide], 277 to 282 °C.
As to `Cc1cn(-c2cc(NC(=O)c3cccc4cc(Oc5ccnc(NC(=O)[C@@H]6CCCN6)c5)ccc34)cc(C(F)(F)F)c2)cn1` [Example 25, 6-[[2-[(2S)-2-Pyrrolidinecarbonyl]amino-pyridin-4-yl]oxy]-naphthalene-1-carboxylic acid [3-(4-methyl-1H-imidazol-1-yl)-5-(trifluoromethylphenyl)]amide], the IC50 in data set [1] lay in the range of 0.065 to 0.068 µM.
